The nature of one data set: in vivo. The note with it: mouse, in vivo, po. How it is done:
(§1) Groups of five Carworth CF1 S female mice, 16-20 g each, were fasted 16-22 hours before use. The mice were put in opaque plastic "shoe-box" cages 15-30 min. before injection, and then treated orally with 4, 12, 36, 108 and 324 mg/kg of the compound to be tested as a 13 mg/ml solution in 1% aqueous distilled water solution of methylcellulose (Methocel®). Each dose was given in a standard volume of 0.45 ml. Observations were made at 0.5, 2 and 24 hours after dosing. ED50 values were calculated for each parameter including death (LD50). The ED50 and LD50 values are the doses at which 50% of the naimals would be expected to respond.
(§2) The mouse is placed on a stainless steel wire mesh screen (8 × 12 inches, 3 mesh per inch, 1/4 inch mesh openings) "shoe-box" lid (1 inch high) and is observed for normal activities, such as nose movements, head movements with apparent visual examination of the area, and/or walking around on the screen. Absence of or marked depression of these activities for 5 seconds constitutes loss of exploratory activity.
(§3) The mouse is picked up by the tail and placed on the screen with its head facing the observer. Bilateral eyelid closure of 50% or more two seconds after placement is considered ptosis.
(§4) The mouse is placed with its front paws on the edge of a stainless steel "shoe-box" cover, 1 inch high, covered with adhesive tape. Failure to remove both paws from the cover's edge within 5 seconds constitutes catatonia.
(§5) The observer gently strokes the abdominal musculature of the mouse with thumb and forefinger. Flaccidity (or rarely, tenseness) is recorded.
(§6) The mouse is gently swung by the tail toward a horizontal 12 gauge wire tautly stretched 25 cm above the bench. After the mouse grasps the wire with its forepaws, its posterior end is held directly below the wire. A normal mouse grasps the wire with its forepaws and immediately lifts its hind limbs to the wire. Failure to grasp the wire with the forepaws in both trials constitutes loss of the grip reflex; failure to lift the hind limbs to grasp the wire with at least one hind paw within 5 seconds constitutes loss of the lift reflex.
(§7) The mouse is placed on the bar 10-20 cm horizontally and 9 cm vertically from a Galton whistle adjusted for 13 kc (5 mm on the whistle scale) and is subjected to several short bursts of sound.
(§8) An effective tranquilizer should induce little or no tremor response. […] Tremors include fine or coarse and intermittent or continuous tremors.

The test system of a further data set is female white mice. The data set can be described thus: animal or person. Conditions: Mus musculus, po, oral, mice. How it is done:
as §1, §2, §3, §4, §5, §6, §7, §8

The subject of data set [1] is phenylquinone-induced writhing. The data set can be described thus: Phenylquinone writhing test (analgesia). It is filed as in vivo, mouse (Carworth CF1 S female). Conditions: Mus musculus. The text has this:
This mouse test is predictive of analgesic response in humans. [E. Siegmund, R. Cadmus and G. Lee, Proc. Soc.
ED50 values were obtained graphically from the data.

The mark [2] stands for this setting: read-out: Catatonia ED50, Table 1.
[3] abbreviates: read-out: Exploratory Loss Visual ED50, Table 1.
Setting [4] is: read-out: Muscle Tone ED50, Table 1.
Setting [5] is: read-out: Reflexes Grip ED50, Table 1.
Setting [6] is: read-out: Reflexes Lift ED50, Table 1.
Where [7] appears, read: read-out: Reflexes Pinna ED50, Table 1.
[8] abbreviates: read-out: Catatonia ED50, Table III.
[9] abbreviates: read-out: Exploratory Loss Visual ED50, Table III.
Setting [10] is: read-out: Muscle Tone ED50, Table III.
Where [11] appears, read: read-out: Ptosis ED50, Table III.
Setting [12] is: read-out: Reflexes Grip ED50, Table III.
The mark [13] stands for this setting: read-out: Reflexes Lift ED50, Table III.
[14] abbreviates: read-out: Reflexes Pinna ED50, Table III.

Structures can show the parent of a compound that is named as a salt. Where two headings read alike, the source gives them in different places.

Regarding `c1csc(CN2C[C@@H]3c4ccccc4[C@@H]4C[C@@]3(C2)c2ccccc24)c1` (relative stereo) [Example 54, 2-(2-Thienylmethyl)-2,3,8,12b-tetrahydro-1H-3a,8-methanodibenzo[3,4:6,7]cyclohepta[1,2-c]pyrrole], the ED50 is > 324 mg/kg in the data set “in vivo”; 200 mg/kg with female white mice (setting [2]); 200 mg/kg in the data set with female white mice (setting [3]); 200 mg/kg with female white mice (setting [4]); 60 mg/kg in the data set with female white mice (read-out: Ptosis ED50, Table 1); > 324 mg/kg in the data set on female white mice (setting [5]). For the same molecule, the ED50 with female white mice (setting [6]) was > 324 mg/kg; in the data set with female white mice (setting [7]), 200 mg/kg; in data set [1] (po, Table 1, mice), 27 mg/kg. Besides, the LD50 at 24 h in the data set “in vivo” was > 324 mg/kg.

With `c1ccc([C@@H]2C[C@H]2CN2CC3c4ccccc4C4CC3(C2)c2ccccc24)cc1` (relative stereo) [Example 55, 2-(trans-2-Phenylcyclopropylmethyl)-2,3,8,12 b-tetrahydro-1H-3a,8-methanodibenzo[3,4:6,7]cyclohepta[1,2-c]pyrrole], the ED50 in the data set “in vivo” was > 324 mg/kg; in the data set with female white mice (setting [2]), 200 mg/kg; in the data set with female white mice (setting [3]), 100 mg/kg; in the data set on female white mice (setting [4]), 100 mg/kg; in the data set on female white mice (read-out: Ptosis ED50, Table 1) it was 36 mg/kg; in the data set with female white mice (setting [5]), > 324 mg/kg. Besides, the ED50 was determined as 200 mg/kg in the data set on female white mice (setting [6]); 200 mg/kg in the data set with female white mice (setting [7]); 48 mg/kg in data set [1] (po, Table 1, mice). For the same molecule, the LD50 at 24 h in “in vivo” was > 324 mg/kg.

Take `CC(C)(C)N1C[C@@H]2c3ccccc3[C@@H]3C[C@@]2(C1)c1ccccc13` (relative stereo) [Example 56, 2-Tertiarybutyl-2,3,8,12b-tetrahydro-1H-3a,8-methanodibenzo[3,4:6,7]cyclohepta[1,2-c]pyrrole]: the LD50 at 24 h in the data set “in vivo” turned out to be 300 mg/kg. Also, the ED50 in “in vivo” (Tremors ED50, Table 1, mice) amounted to 200 mg/kg; in the data set with female white mice (setting [2]), 200 mg/kg; in the data set with female white mice (setting [3]), 200 mg/kg; with female white mice (setting [4]) it was 100 mg/kg; in the data set with female white mice (read-out: Ptosis ED50, Table 1), 100 mg/kg; with female white mice (setting [5]), 100 mg/kg. Further, the ED50 with female white mice (setting [6]) was determined as 60 mg/kg; in the data set with female white mice (setting [7]) it was 200 mg/kg; in data set [1] (Table 1, oral, mice) it was 45 mg/kg.

In turn, `CCCN1C[C@@H]2c3ccccc3[C@@H]3C[C@@]2(C1)c1ccccc13` (relative stereo) [Example 58, 2-n-Propyl-2,3,8,12b-tetrahydro-1H-3a,8-methanodibenzo[3,4:6,7]cyclohepta[1,2-c]pyrrole] had an LD50 at 24 h in “in vivo” of 200 mg/kg. Moreover, the ED50 with female white mice (setting [2]) was found to be 7 mg/kg; in the data set on female white mice (setting [3]), 7 mg/kg; in the data set with female white mice (setting [4]), 7 mg/kg; in the data set on female white mice (read-out: Ptosis ED50, Table 1), 7 mg/kg; in the data set with female white mice (setting [5]), 60 mg/kg; in the data set on female white mice (setting [6]), 7 mg/kg. In addition, the ED50 amounted to 4 mg/kg in the data set on female white mice (setting [7]) and 2.9 mg/kg in data set [1] (Table 1, oral, mice).

Turning to `CCCCCN1C[C@@H]2c3ccccc3[C@@H]3C[C@@]2(C1)c1ccccc13` (relative stereo) [Example 59, 2-n-Pentyl-2,3,8,12b-tetrahydro-1H-3a,8-methanodibenzo[3,4:6,7]cyclohepta[1,2-c]pyrrole], the LD50 at 24 h in the data set “in vivo” is > 324 mg/kg. Also, the ED50 turned out to be 17 mg/kg with female white mice (setting [2]); 8.4 mg/kg in the data set on female white mice (setting [3]); 13 mg/kg with female white mice (setting [4]); 4.5 mg/kg in the data set with female white mice (read-out: Ptosis ED50, Table 1); 100 mg/kg in the data set on female white mice (setting [5]); 19 mg/kg with female white mice (setting [6]). Further, the ED50 was 8 mg/kg in the data set with female white mice (setting [7]) and 8.2 mg/kg in data set [1] (Table 1, oral, mice).

Consider `CC(C)CCN1C[C@@H]2c3ccccc3[C@@H]3C[C@@]2(C1)c1ccccc13` (relative stereo) [Example 60, 2-(3-Methylbutyl)-2,3,8,12b-tetrahydro-1H-3a, 8-methanodibenzo[3,4:6,7]cyclohepta[1,2-c]pyrrole], for which, in “in vivo”, the LD50 at 24 h is > 324 mg/kg. Further, the ED50 worked out at 20 mg/kg in the data set on female white mice (setting [2]); 20 mg/kg in the data set with female white mice (setting [3]); 20 mg/kg in the data set with female white mice (setting [4]); 36 mg/kg in the data set with female white mice (read-out: Ptosis ED50, Table 1); 200 mg/kg in the data set with female white mice (setting [5]); 60 mg/kg in the data set on female white mice (setting [6]). Besides, the ED50 with female white mice (setting [7]) was found to be 36 mg/kg; in data set [1] (Table 1, oral, mice), 15 mg/kg.

In the case of `c1ccc(CCCCN2C[C@@H]3c4ccccc4[C@@H]4C[C@@]3(C2)c2ccccc24)cc1` (relative stereo) [Example 61, 2-(4-Phenylbutyl)-2,3,8,12b-tetrahydro-1H-3a,8-methanodibenzo[3,4:6,7]cyclohepta[1,2-c]pyrrole], the LD50 at 24 h in “in vivo” was > 324 mg/kg. Further, the ED50 in the data set on female white mice (setting [2]) was 20 mg/kg; in the data set with female white mice (setting [3]) it was 20 mg/kg; in the data set on female white mice (setting [4]) it was 20 mg/kg; in the data set on female white mice (read-out: Ptosis ED50, Table 1), 36 mg/kg; in the data set on female white mice (setting [5]) it was > 324 mg/kg; in the data set with female white mice (setting [6]), 60 mg/kg. In addition, the ED50 with female white mice (setting [7]) is 36 mg/kg; in data set [1] (po, Table 1, mice), 5.6 mg/kg.

Take `Nc1ccc2c(c1)[C@]13C[C@H]2c2ccccc2[C@H]1CN(CC1CCCC1)C3` (relative stereo) [Example 64, 5-Amino-2-cyclopentylmethyl-2,3,8,12b-tetrahydro-1H-3a, 8-methanodibenzo[3,4:6,7]cyclohepta[1,2-c]pyrrole Hydrochloride]: in the data set “in vivo”, the LD50 at 24 h was > 324 mg/kg. The ED50 in the data set with female white mice (setting [8]) is < 4 mg/kg; in the data set on female white mice (setting [9]) it was < 4 mg/kg; with female white mice (setting [10]), < 4 mg/kg; in the data set with female white mice (setting [11]), < 4 mg/kg; with female white mice (setting [12]), 200 mg/kg; in the data set on female white mice (setting [13]), 12 mg/kg. Moreover, the ED50 was determined as 7 mg/kg in the data set on female white mice (setting [14]) and 6.2 mg/kg in data set [1] (po, Table III, mice).

Turning to `CC(=O)Nc1ccc2c(c1)[C@]13C[C@H]2c2ccccc2[C@H]1CN(CC1CCCC1)C3` (relative stereo) [Example 65, 5-Acetamido-2-cyclopentylmethyl-2,3,8,12b-tetrahydro1H-3a,8-methanodibenzo[3,4:6,7]cyclohepta[1,2-c]pyrrole Hydrochloride], the LD50 at 24 h in the data set “in vivo” was found to be 300 mg/kg. Moreover, the ED50 is 60 mg/kg in the data set with female white mice (setting [8]); 200 mg/kg in the data set with female white mice (setting [9]); 60 mg/kg with female white mice (setting [10]); 7 mg/kg in the data set with female white mice (setting [11]); > 324 mg/kg in the data set on female white mice (setting [12]); 60 mg/kg in the data set with female white mice (setting [13]). Also, the ED50 was 36 mg/kg in the data set on female white mice (setting [14]) and 18 mg/kg in data set [1] (po, Table III, mice).

On to `CC(=O)c1ccc2c(c1)[C@]13C[C@H]2c2ccccc2[C@H]1CN(CC1CCCC1)C3` (relative stereo) [Example 66, 5-Acetyl-2-cyclopentylmethyl-2,3,8,12b-tetrahydro-1H3a,8-methanodibenzo[3,4:6,7]cyclohepta[1,2-c]pyrrole Hydrochloride], for which the LD50 at 24 h in the data set “in vivo” was > 324 mg/kg. Moreover, the ED50 is 12 mg/kg with female white mice (setting [8]); 7 mg/kg in the data set with female white mice (setting [9]); 12 mg/kg in the data set on female white mice (setting [10]); < 4 mg/kg with female white mice (setting [11]); 300 mg/kg in the data set with female white mice (setting [12]); 20 mg/kg in the data set with female white mice (setting [13]). For the same molecule, the ED50 was found to be 12 mg/kg with female white mice (setting [14]) and 3.1 mg/kg in data set [1] (po, Table III, mice).

Turning to `Oc1ccc2c(c1)[C@]13C[C@H]2c2ccccc2[C@H]1CN(CC1CCCC1)C3` (relative stereo) [Example 68, 5-Hydroxy-2-cyclopentylmethyl-2,3,8,12b-tetrahydro-1H-3a,8-methanodibenzo[3,4:6,7]cyclohepta[1,2-c]pyrrole Hydrochloride], in “in vivo”, the LD50 at 24 h was > 324 mg/kg. Further, the ED50 is 20 mg/kg with female white mice (setting [8]); 12 mg/kg with female white mice (setting [9]); 20 mg/kg in the data set with female white mice (setting [10]); 12 mg/kg with female white mice (setting [11]); > 324 mg/kg with female white mice (setting [12]); 60 mg/kg in the data set with female white mice (setting [13]). In addition, the ED50 in the data set with female white mice (setting [14]) came out at 36 mg/kg; in data set [1] (po, Table III, mice), 19 mg/kg.

The values above are taken from patent US4088772A, “Methanodibenzocycloheptapyrroles” (E. I. Du Pont de Nemours and Company, priority 1975, dated 1978).
